Data reported in patent publication US7423032B2, “Method for treating severe heart failure and medicament therefor” (Otsuka Pharmaceutical Co., Ltd., priority 2003, dated 2008).

Experiments:
Assay type in all cases: in vivo, human patients
[1] = Discontinued cases due to adverse experiences in patients treated with (A); conditions: for Discontinuation due to Adverse Experience Event Rate (%): placebo 15.0%
Procedure: (§1) To patients of severe heart failure (i.e., patient in acute heart failure or chronic heart failure in acute exacerbation, New York Heart Association Class III and IV) was administered 5-hydroxy-7-chloro-1-[2-methyl-4-(2-methylbenzoylamino)benzoyl]-2,3,4,5-tetrahydro-1H-benzazepine at a dose of 30, 60 or 90 mg/day for a period of 60 days, which period began from the duration of hospitalization to after being discharged from hospital (details thereof are shown in Table 1).
(§2) In addition, in the group treated with the lowest dose of 30 mg, the urinary frequency event rate as an adverse experience was lower (Table 6), and the discontinued rate due to adverse experiences was lower (Table 7), as compared with the data of the groups treated with higher doses.

[2] = Mean change in body weight from baseline in patients treated with (A); design: Mean change in body weight from baseline: unit not given here
Procedure: as §1
(§3) As to the statistical analysis, the data in Table 2 was analyzed by ANOVA method, and the data in Tables 3 and 4 were analyzed by ANCOVA method, and the data in Table 5 was analyzed by Log-Rank test.
(§4) When the dosages in this experiment were converted to a daily dose per 1 kg of body weight, they were 0.371±0.096 mg/kg (n=77) in the 30 mg-treated group, 0.769±0.205 mg/kg (n=83) in the 60 mg-treated group, and 1.149±0.283 mg/kg (n=76) in the 90 mg-treated group (all in mean±SD).

[3] = Serum sodium concentration in patients of hyponatremia at baseline treated with (A); conditions: for Serum sodium concentration: mean ± SD
Procedure: as §1
As to the statistical analysis, the data in Table 2 was analyzed by ANOVA method, and the data in Tables 3 and 4 were analyzed by ANCOVA method, and the data in Table 5 was analyzed by Log-Rank test. […]

[4] = Adverse events (urinary frequency) in patients treated with (A); conditions: for Urinary Frequency Event Rate (%): placebo 1.3%
Procedure: as §1, §2

[5] = test system: patients of severe heart failure; assay: Mortality of the patients treated with (A); conditions: for Mortality Event Rate (%): placebo 8.7%; for Number off Death: on therapy up to 60 days
Procedure: as §1, §3

[6] = Total urine output in patients treated with (A), placebo-controlled Phase IIB study; design: Total urine output: unit not given here
Procedure: as §1, §3, §4

[7] = 30 mg group compared with groups treated with higher doses
[8] = 30 mg/day oral, 78 patients randomized
[9] = 60 mg/day oral, 84 patients randomized
[10] = 90 mg/day oral, 77 patients randomized

Cc1ccccc1C(=O)Nc1ccc(C(=O)N2CCCC(O)c3cc(Cl)ccc32)c(C)c1 (stereo not drawn) [(A), 5-hydroxy-7-chloro-1-[2-methyl-4-(2-methylbenzoylamino)benzoyl]-2,3,4,5-tetrahydro-1H-benzazepine]
discontinued rate due to adverse experiences (in words) [1, 7]: lower
Discontinued cases due to Adverse Experience (number) [1, 8]: 14
Discontinuation due to Adverse Experience Event Rate (%) [1, 8]: 17.9%
Discontinued cases due to Adverse Experience (number) [1, 9]: 25
Discontinuation due to Adverse Experience Event Rate (%) [1, 9]: 29.8%
Discontinued cases due to Adverse Experience (number) [1, 10]: 17
Discontinuation due to Adverse Experience Event Rate (%) [1, 10]: 22.1%
body weight (in words) ([2]; 30 mg-treated group): decreased
Mean change in body weight from baseline ([2]; 30 mg/day oral, Day 1, mean ± SD, n=76): −2.14 ± 2.63
Mean change in body weight from baseline ([2]; 30 mg/day oral, Day 2, mean ± SD, n=63): −3.49 ± 3.80
Mean change in body weight from baseline ([2]; 30 mg/day oral, Day 3, mean ± SD, n=49): −4.78 ± 4.14
Mean change in body weight from baseline ([2]; 30 mg/day oral, Discharge, mean ± SD, n=76): −4.37 ± 4.69
Mean change in body weight from baseline ([2]; 30 mg/day oral, Last Visit, mean ± SD, n=76): −2.42 ± 5.37
Mean change in body weight from baseline ([2]; 30 mg/day oral, outpatient Week 1, mean ± SD, n=65): −2.71 ± 4.93
Mean change in body weight from baseline ([2]; 30 mg/day oral, outpatient Week 7, mean ± SD, n=54): −2.12 ± 5.16
Mean change in body weight from baseline ([2]; 60 mg/day oral, Day 1, mean ± SD, n=76): −2.10 ± 1.80
Mean change in body weight from baseline ([2]; 60 mg/day oral, Day 2, mean ± SD, n=65): −3.03 ± 2.48
Mean change in body weight from baseline ([2]; 60 mg/day oral, Day 3, mean ± SD, n=47): −3.93 ± 3.33
Mean change in body weight from baseline ([2]; 60 mg/day oral, Discharge, mean ± SD, n=82): −4.60 ± 4.67
Mean change in body weight from baseline ([2]; 60 mg/day oral, Last Visit, mean ± SD, n=82): −3.60 ± 6.38
Mean change in body weight from baseline ([2]; 60 mg/day oral, outpatient Week 1, mean ± SD, n=59): −2.73 ± 5.45
Mean change in body weight from baseline ([2]; 60 mg/day oral, outpatient Week 7, mean ± SD, n=54): −2.87 ± 6.67
Mean change in body weight from baseline ([2]; 90 mg/day oral, Day 1, mean ± SD, n=74): −1.90 ± 2.87
Mean change in body weight from baseline ([2]; 90 mg/day oral, Day 2, mean ± SD, n=61): −2.84 ± 3.16
Mean change in body weight from baseline ([2]; 90 mg/day oral, Day 3, mean ± SD, n=45): −2.65 ± 4.22
Mean change in body weight from baseline ([2]; 90 mg/day oral, Discharge, mean ± SD, n=76): −3.75 ± 4.18
Mean change in body weight from baseline ([2]; 90 mg/day oral, Last Visit, mean ± SD, n=76): −2.39 ± 5.20
Mean change in body weight from baseline ([2]; 90 mg/day oral, outpatient Week 1, mean ± SD, n=53): −3.23 ± 4.46
Mean change in body weight from baseline ([2]; 90 mg/day oral, outpatient Week 7, mean ± SD, n=53): −2.23 ± 5.19
Serum sodium concentration ([3]; 30 mg group, Baseline, patients of hyponatremia at baseline, n=15): 132.13 ± 3.44 mEq/L
Serum sodium concentration ([3]; 30 mg/day oral, Day 1, patients of hyponatremia at baseline, n=15): 136.00 ± 3.96 mEq/L
Serum sodium concentration ([3]; 30 mg/day oral, Day 2, patients of hyponatremia at baseline, n=11): 135.09 ± 5.07 mEq/L
Serum sodium concentration ([3]; 30 mg/day oral, Day 3, patients of hyponatremia at baseline, n=8): 135.13 ± 5.38 mEq/L
Serum sodium concentration ([3]; 30 mg/day oral, Discharge, patients of hyponatremia at baseline, n=15): 136.13 ± 4.61 mEq/L
Serum sodium concentration ([3]; 30 mg/day oral, Last Visit, patients of hyponatremia at baseline, n=15): 137.00 ± 5.04 mEq/L
Serum sodium concentration ([3]; 30 mg/day oral, outpatient Week 1, patients of hyponatremia at baseline, n=12): 138.25 ± 4.22 mEq/L
Serum sodium concentration ([3]; 30 mg/day oral, outpatient Week 7, patients of hyponatremia at baseline, n=10): 137.60 ± 4.65 mEq/L
Serum sodium concentration ([3]; 60 mg group, Baseline, patients of hyponatremia at baseline, n=22): 130.86 ± 4.00 mEq/L
Serum sodium concentration ([3]; 60 mg/day oral, Day 1, patients of hyponatremia at baseline, n=22): 135.77 ± 6.16 mEq/L
Serum sodium concentration ([3]; 60 mg/day oral, Day 2, patients of hyponatremia at baseline, n=17): 137.29 ± 3.02 mEq/L
Serum sodium concentration ([3]; 60 mg/day oral, Day 3, patients of hyponatremia at baseline, n=13): 138.62 ± 4.44 mEq/L
Serum sodium concentration ([3]; 60 mg/day oral, Discharge, patients of hyponatremia at baseline, n=22): 137.18 ± 4.56 mEq/L
Serum sodium concentration ([3]; 60 mg/day oral, Last Visit, patients of hyponatremia at baseline, n=22): 136.18 ± 5.94 mEq/L
Serum sodium concentration ([3]; 60 mg/day oral, outpatient Week 1, patients of hyponatremia at baseline, n=16): 136.88 ± 5.82 mEq/L
Serum sodium concentration ([3]; 60 mg/day oral, outpatient Week 7, patients of hyponatremia at baseline, n=11): 139.36 ± 4.76 mEq/L
Serum sodium concentration ([3]; 90 mg group, Baseline, patients of hyponatremia at baseline, n=15): 133.07 ± 2.52 mEq/L
Serum sodium concentration ([3]; 90 mg/day oral, Day 1, patients of hyponatremia at baseline, n=15): 137.13 ± 4.82 mEq/L
Serum sodium concentration ([3]; 90 mg/day oral, Day 2, patients of hyponatremia at baseline, n=15): 137.00 ± 4.60 mEq/L
Serum sodium concentration ([3]; 90 mg/day oral, Day 3, patients of hyponatremia at baseline, n=11): 136.45 ± 4.59 mEq/L
Serum sodium concentration ([3]; 90 mg/day oral, Discharge, patients of hyponatremia at baseline, n=15): 137.13 ± 3.02 mEq/L
Serum sodium concentration ([3]; 90 mg/day oral, Last Visit, patients of hyponatremia at baseline, n=15): 136.60 ± 5.17 mEq/L
Serum sodium concentration ([3]; 90 mg/day oral, outpatient Week 1, patients of hyponatremia at baseline, n=8): 136.13 ± 3.64 mEq/L
Serum sodium concentration ([3]; 90 mg/day oral, outpatient Week 7, patients of hyponatremia at baseline, n=6): 138.00 ± 5.73 mEq/L
serum sodium concentration (in words) ([3]; patients of hyponatremia at baseline (less than 136 mEq/L)): increase of serum sodium concentration
urinary frequency event rate as an adverse experience (in words) [4, 7]: lower
Adverse Event Urinary Frequency (number of patients) ([4]; 30 mg/day oral, 78 patients): 1
Urinary Frequency Event Rate (%) ([4]; 30 mg/day oral, 78 patients): 1.3%
Adverse Event Urinary Frequency (number of patients) ([4]; 60 mg/day oral, 84 patients): 3
Urinary Frequency Event Rate (%) ([4]; 60 mg/day oral, 84 patients): 3.6%
Adverse Event Urinary Frequency (number of patients) ([4]; 90 mg/day oral, 76 patients): 4
Urinary Frequency Event Rate (%) ([4]; 90 mg/day oral, 76 patients): 5.3%
mortality rate vs control group (in words) ([5]; 30 mg-treated group, entire period, Log-Rank test): significantly lower
Mortality Event Rate (%) [5, 8]: 3.8%
Number off Death [5, 8]: 3
Mortality Event Rate (%) [5, 9]: 9.5%
Number off Death [5, 9]: 8
Mortality Event Rate (%) [5, 10]: 2.5%
Number off Death [5, 10]: 2
total urine output (in words) ([6]; 30 mg-treated group): increased
Total urine output ([6]; 30 mg/day oral, Day 1, mean ± SD, n=73): 4056.16 ± 2310.23
Total urine output ([6]; 30 mg/day oral, Day 2, mean ± SD, n=67): 3905.61 ± 1942.03
Total urine output ([6]; 30 mg/day oral, Day 3, mean ± SD, n=52): 3579.04 ± 1867.86
Total urine output ([6]; 30 mg/day oral, Day 6, mean ± SD, n=33): 3146.67 ± 1618.09
Total urine output ([6]; 30 mg/day oral, Day 7, mean ± SD, n=16): 2662.81 ± 1507.51
Total urine output ([6]; 30 mg/day oral, Day 9, mean ± SD, n=5): 2908.00 ± 475.59
Total urine output ([6]; 60 mg/day oral, Day 1, mean ± SD, n=82): 4175.15 ± 2695.44
Total urine output ([6]; 60 mg/day oral, Day 2, mean ± SD, n=74): 3699.26 ± 2094.02
Total urine output ([6]; 60 mg/day oral, Day 3, mean ± SD, n=54): 3420.41 ± 1902.77
Total urine output ([6]; 60 mg/day oral, Day 6, mean ± SD, n=32): 3684.56 ± 2472.45
Total urine output ([6]; 60 mg/day oral, Day 7, mean ± SD, n=17): 4230.00 ± 1691.43
Total urine output ([6]; 60 mg/day oral, Day 9, mean ± SD, n=11): 3753.18 ± 2415.48
Total urine output ([6]; 90 mg/day oral, Day 1, mean ± SD, n=73): 4127.27 ± 2050.81
Total urine output ([6]; 90 mg/day oral, Day 2, mean ± SD, n=64): 3961.73 ± 2129.11
Total urine output ([6]; 90 mg/day oral, Day 3, mean ± SD, n=50): 4069.32 ± 2306.07
Total urine output ([6]; 90 mg/day oral, Day 6, mean ± SD, n=30): 4188.23 ± 2275.15
Total urine output ([6]; 90 mg/day oral, Day 7, mean ± SD, n=17): 3915.12 ± 2101.53
Total urine output ([6]; 90 mg/day oral, Day 9, mean ± SD, n=7): 2421.43 ± 1391.12
